These are literature values, as cited in US20070041998A1, “Use of alum and a th1 immune response inducing adjuvant for enhancing immune responses” (Intercell AG, priority 2003, published 2007).

Where no end group is shown, it is not given here.

One data set has as its system human neutrophils. Conditions: via cell surface calreticulin.
Another data set concerns Staphylococcus aureus. The conditions noted are these: Staphylococcus aureus-infected mice.

As to “KLKLLLLLKLK-NH2 [synthetic antimicrobial peptide (Nakajima 1997; Cho 1999)]”, the “production of superoxide anion (O2−)” value in the data set on human neutrophils is on record as “activated to produce the superoxide anion”. Moreover, the chemotherapeutic activity entry in the data set on Staphylococcus aureus is “significant chemotherapeutic activity”.
